In PubChem BioAssay (NCI) one finds TGI and GI50 data, which are given here for 31 compounds.

Holding throughout (experiment): inhibition of tumour cell growth, NCI panel, 48 h
Assay [1] deals with SW-620 colon.
The test system of assay [2] is A549 NSCLC.
Assay [3] has as its system MCF7 breast.
Assay [4] relates to SK-MEL-2 melanoma.
The test system of assay [5] is K-562 leukemia.
Assay [6] concerns UACC-257 melanoma.
Assay [7] has as its system NCI-H226 lung.
The subject of assay [8] is UO-31 renal.
Assay [9] relates to MDA-MB-435.
Assay [10] has as its system SF-268 CNS.

Values joined by “and” are separate entries in the source; they are usually repeats but may differ in a detail not shown here. Equal entries are not always repeated.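 A five-concentration, 48-hour dose response in 96-well plates underlies each endpoint, interpolated linearly between surrounding concentrations. GI50 marks 50% less growth. TGI: total growth inhibition.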 Where a SMILES comes first, the peptide text is derived from it. [ ]: non-standard residue; d: D form. The star is where a group is joined. Bn2Val = CC(C)[C@@H](C(=O)*)N(Cc1ccccc1)Cc1ccccc1; NH(4-Cl-benzyl) = Clc1ccc(CN*)cc1; NMeV = CN[C@H](C(=O)O)C(C)C; dNMeA = CN[C@H](C)C(=O)O Where only a bound is given, the exact number is not on record here.

With `C=CCP(=O)(CC=C)C(Cl)Cl`, the TGI in assay [1], in assay [2], in assay [3], in [4], in [5] and in assay [6] was greater than 100 µM each time. Further, the TGI in assay [7] and in assay [8] was greater than 100 µM each time.
As for `Cc1ccc(S(=O)CC(CF)OCn2cc(C)c(=O)[nH]c2=O)cc1` (centres undefined), the TGI in [1], in [2], in assay [9], in assay [10], in assay [3] and in assay [4] was greater than 100 µM each time. Besides, the TGI in [7] and in [8] was greater than 100 µM in each case.
As for `COc1ccc(-c2oc3cc(O)cc(O)c3c(=O)c2OC)cc1`, the TGI in assay [1] was greater than 100 µM; in assay [2], greater than 100 µM; in assay [9], greater than 100 µM; in assay [10], 78.2 µM; in assay [3], greater than 100 µM; in [5] it was greater than 100 µM. Further, the TGI in assay [6] is greater than 100 µM; in assay [8], 56.6 µM.
Consider `CN1C(=O)C(O)C[C@@H]1c1ccccc1` (some centres undefined), for which the TGI in assay [1], in [2], in [9], in assay [10], in assay [3] and in [4] was greater than 100 µM each time. The TGI in assay [6], in assay [7] and in assay [8] was greater than 100 µM in each case.
Turning to `Cc1cc(=O)[nH]c(NN2C(Cl)C(=O)C2c2ccc([N+](=O)[O-])cc2)n1` (centres undefined), the TGI in assay [1] is 79.7 µM; in assay [2], greater than 100 µM; in [10] it was 41 µM; in assay [4], 19.6 µM; in [5] it was 15 µM; in assay [6], 37.6 µM. This compound also returned a TGI in assay [8] of 43.1 µM.
On to `CC(C)(C)n1c(=O)[nH]c(=O)n1C(C)(C)C`, for which the TGI in assay [1], in assay [2], in [3], in assay [4], in assay [5] and in assay [6] was greater than 100 µM each time. In addition, the TGI in assay [7] and in assay [8] was greater than 100 µM each time.
With `O=C(O)c1ccccc1N=Cc1ccc(N(CCCl)CCCl)cc1`, the TGI in [1], in assay [2], in assay [10], in [3], in [4] and in [5] was greater than 100 µM each time. The TGI in assay [6] and in assay [8] was greater than 100 µM throughout.
As to `CC(C)(C)[Si](C)(C)OCc1cccc(OCCOc2cccc(CO[Si](C)(C)C(C)(C)C)c2[N+](=O)[O-])c1[N+](=O)[O-]`, the TGI in assay [1], in assay [2], in [9], in assay [10], in assay [3] and in [4] was greater than 100 µM each time. In addition, the TGI in [6], in assay [7] and in [8] was greater than 100 µM in each case.
Consider `Cc1cc(OC(=O)NCn2cc(-c3ccccc3)nn2)ccc1Cl`, for which the TGI in [1], in assay [2], in assay [10], in assay [3], in assay [4] and in assay [5] was greater than 100 µM throughout. Also, the TGI in assay [6] and in assay [7] was greater than 100 µM each time.
For the compound `CCCSc1ccc2[nH]c(N3C(=O)/C(=C/c4ccccc4)N=C3c3ccccc3)cc2c1`, the TGI in [1] was greater than 50 µM; in assay [2], greater than 50 µM; in assay [9] it was 21.3 µM; in [10] it was greater than 50 µM; in assay [3] it was greater than 50 µM; in assay [4], 18 µM. Moreover, the TGI in assay [5], in assay [6] and in assay [8] was greater than 50 µM each time.
As for `CC(C)[C@H](NC(=O)[C@H](C(C)C)N(Cc1ccccc1)Cc1ccccc1)C(=O)N(C)[C@H](C(=O)N1CCC[C@H]1C(=O)N(C)[C@H](C)C(=O)NCc1ccc(Cl)cc1)C(C)C` (Bn2Val-V[NMeV]P[dNMeA]-{NH(4-Cl-benzyl)}), the TGI was greater than 100 µM in assay [1]; greater than 100 µM in assay [2]; 79.8 µM in assay [9]; 11.2 µM in [10]; 3.62 µM in assay [4]; greater than 100 µM in assay [5]. Moreover, the figures for the TGI in assay [6] and in assay [7] were greater than 100 µM and 9.66 µM, respectively.
Turning to `CC1(C)CC2(CC(C)(C)N1O)NC(=O)OC2=O`, the TGI in assay [1], in assay [2], in [10], in assay [3], in [4] and in [5] was greater than 100 µM in each case. In addition, the TGI in assay [6], in assay [7] and in assay [8] was greater than 100 µM each time.
As to `COc1cccc(N[C@@H]2c3cc4c(cc3C(c3cc(OC)c(O)c(OC)c3)[C@H]3C(=O)OCC32)OCO4)c1` (some centres undefined), the TGI in assay [1] is greater than 43.2 µM; in assay [2] it was 2.14 µM; in [10], 12.8 µM; in [3], 14.4 µM; in assay [4] it was 11.2 µM; in assay [5], 14.1 µM. The TGI worked out at 34.3 µM in assay [6], 2.05 µM in assay [7] and 9.78 µM in assay [8].
`C/C(=N\NC(=S)N(C)C)c1cccnn1`: the TGI was greater than 100 µM in assay [1]; greater than 100 µM in assay [9]; greater than 45 µM in assay [3]; greater than 100 µM in assay [4]; greater than 100 µM in assay [5]; 2.98 µM in [6]. Also, the TGI in assay [7] amounted to 4.83 µM; in assay [8] it was 5.04 µM.
Consider `O=c1oc(C(C(F)(F)F)C(F)(F)F)nc2ccccc12`, for which the TGI in [1], in [2], in [9], in assay [3], in [4] and in [5] was greater than 100 µM in each case. In addition, the TGI in [6], in assay [7] and in [8] was greater than 100 µM each time.
In the case of `C/C(=N\Nc1nc2ccccc2n1C)c1cc2ccccc2cn1`, the TGI in [1] was 11.3 µM; in assay [2], 27.1 µM; in assay [9], 9.89 µM; in [10], 11.7 µM; in [5] it was greater than 100 µM; in assay [6], 7.26 µM. In addition, the results for the TGI in assay [7] and in assay [8] were 2.22 µM and 5.03 µM, respectively.
Turning to `CC(C)=CCNc1nc(Cl)nc2nc[nH]c12`, the TGI in [1], in assay [2], in assay [9], in assay [10], in assay [3] and in [5] was greater than 100 µM in each case. The TGI in [6], in [7] and in assay [8] was greater than 100 µM in each case.
Take `COc1cc(C2C3=C(COC3=O)Oc3cc4c(cc32)OCO4)cc(OC)c1O` (centres undefined): the TGI was greater than 100 µM in assay [1]; greater than 60.6 µM in assay [2]; 26.8 µM in assay [10]; greater than 48.2 µM in [3]; 2.51 µM in assay [4]; 0.402 µM in assay [5]. In addition, the TGI in assay [6] is greater than 61.7 µM; in assay [7] it was 0.215 µM; in [8], 49.6 µM.
For `CC(C)(C)CC(C)(C)c1cc(O)c(O)c(CN2CCCCC2)c1`, the TGI in assay [1] amounted to 28 µM; in assay [2], 30.8 µM; in [9] it was 37.1 µM; in [10], 25.3 µM; in assay [3], 25.1 µM; in [5] it was 19.3 µM. The TGI in [6] was found to be 26.1 µM; in assay [7] it was 32 µM; in assay [8] it was 26.1 µM.
Turning to `CC(C)/C(Cl)=N\OC(NC(=O)P(=O)(c1ccccc1)c1ccccc1)(C(F)(F)F)C(F)(F)F`, the TGI in assay [1] came to 53.9 µM; in [2], 42.8 µM; in assay [9], 30.6 µM; in assay [10] it was 31.9 µM; in [3], 34 µM; in assay [5], 23.8 µM. For the same compound, the TGI was found to be 42.2 µM in assay [6], 38.4 µM in assay [7] and 21 µM in assay [8].
For the compound `COc1cc2cc(C(=O)N3CC(COS(C)(=O)=O)c4ccc(O)cc43)[nH]c2c(OC)c1OC` (centres undefined), the TGI in assay [1] was 0.111 µM and 0.0118 µM; in assay [9], 0.000212 µM; in assay [3] it was 0.0402 µM; in [4] it was less than 0.0001 µM; in [6] it was 0.00404 µM; in [7], 0.000531 µM. Also, the TGI in assay [8] is less than 0.0001 µM.
`O=C1c2c(O)cccc2-c2nn(CCNCCO)c3ccc(NCCNCCO)c1c23`: the TGI in assay [1] is 7.09 µM; in assay [2] it was 0.482 µM; in assay [9], 1.87 µM; in [10], 1.17 µM; in [3], 3.15 µM; in assay [4], 1.38 µM. In addition, the TGI amounted to 5.69 µM in assay [6], 0.0964 µM in assay [7] and 10.2 µM in assay [8].
As to `COc1ccc2cc(CNCCCCCCNCc3ccc4cc(OC)ccc4c3)ccc2c1`, the TGI is 0.351 µM in [1]; 3.44 µM in assay [2]; 0.497 µM in assay [9]; 1.2 µM in assay [3]; 2.64 µM in [4]; 3.34 µM in assay [6]. Besides, the TGI in [7] was found to be 3.49 µM; in [8], 3.01 µM.
In the case of `CCOP(=O)(O)CN1CCNCCN(CP(=O)(O)OCC)CCNCC1`, the TGI in assay [1], in [2], in assay [9], in assay [3], in [4] and in [5] was greater than 100 µM each time. In addition, the TGI in assay [6], in assay [7] and in assay [8] was greater than 100 µM in each case.
As to `CCN=C1C=CC(=C(c2ccc(N(CC)CC)cc2)c2ccc(N(CC)CC)cc2)c2ccccc21`, the GI50 in assay [9] is 0.0733 µM; in assay [4], 0.0768 µM; in [6], 0.077 µM; in assay [7], 0.064 µM. Besides, the TGI worked out at 0.428 µM in [9], 0.383 µM in assay [4], 1.18 µM in assay [6] and 1.61 µM in assay [7].
On to `CC(C)(C)OC(=O)NCC(CNC(=O)OC(C)(C)C)c1nc(C(N)=O)cs1`, for which the TGI in assay [1], in assay [2], in [9], in assay [3], in [4] and in assay [5] was greater than 100 µM in each case. For the same compound, the TGI in assay [6], in [7] and in assay [8] was greater than 100 µM each time.
With `Cc1ccccc1-c1nc2c(C(=O)NCCN(C)C)cccc2[nH]1`, the TGI in assay [1] was greater than 100 µM; in assay [2], greater than 100 µM; in [10] it was greater than 100 µM; in assay [3], greater than 100 µM; in assay [4], greater than 100 µM; in assay [5], greater than 61.1 µM. The TGI in assay [6] was greater than 100 µM; in assay [7], 48 µM; in [8], 68.7 µM.
As to `O=C(Cc1ccc(Cl)c(Cl)c1)NCC1(N2CCCCC2)CCCCC1`, the TGI in assay [1], in assay [2], in assay [9], in assay [10], in [3] and in assay [4] was greater than 100 µM throughout. Moreover, the TGI was greater than 100 µM in assay [5], 36.7 µM in assay [6] and greater than 100 µM in assay [8].
For `CC(=O)Nc1ccc(OC/C(N)=N/NC(=O)c2ccncc2)cc1`, the TGI in assay [1], in assay [2], in assay [9], in assay [10], in assay [3] and in assay [4] was greater than 100 µM in each case. Also, the TGI in assay [5] and in assay [6] was greater than 100 µM in each case.
Regarding `CN=C(/N=c1\ssc(=NC)n1C)N(C)C`, the TGI in [1], in assay [2], in assay [10], in [5], in assay [6] and in assay [7] was greater than 100 µM throughout. In assay [8], the TGI was greater than 100 µM.
As for `C=CCC1C(O[Si](C)(C)C(C)(C)C)C(CO[Si](C)(C)C(C)(C)C)OC1n1ccc(=O)[nH]c1=O` (centres undefined), the TGI in assay [1] amounted to 2.84 µM; in assay [2], 2.91 µM; in [9], 4.33 µM; in assay [4], 4.65 µM; in [6], 3.37 µM; in assay [7] it was 3.02 µM. This compound yielded a TGI in [8] of 2.83 µM.
